Type in all cases: biochemical
The target of test [1] is T1, hMeprin β (Homo sapiens, UniProt Q16820).
T1 sequence (Q16820 62-701): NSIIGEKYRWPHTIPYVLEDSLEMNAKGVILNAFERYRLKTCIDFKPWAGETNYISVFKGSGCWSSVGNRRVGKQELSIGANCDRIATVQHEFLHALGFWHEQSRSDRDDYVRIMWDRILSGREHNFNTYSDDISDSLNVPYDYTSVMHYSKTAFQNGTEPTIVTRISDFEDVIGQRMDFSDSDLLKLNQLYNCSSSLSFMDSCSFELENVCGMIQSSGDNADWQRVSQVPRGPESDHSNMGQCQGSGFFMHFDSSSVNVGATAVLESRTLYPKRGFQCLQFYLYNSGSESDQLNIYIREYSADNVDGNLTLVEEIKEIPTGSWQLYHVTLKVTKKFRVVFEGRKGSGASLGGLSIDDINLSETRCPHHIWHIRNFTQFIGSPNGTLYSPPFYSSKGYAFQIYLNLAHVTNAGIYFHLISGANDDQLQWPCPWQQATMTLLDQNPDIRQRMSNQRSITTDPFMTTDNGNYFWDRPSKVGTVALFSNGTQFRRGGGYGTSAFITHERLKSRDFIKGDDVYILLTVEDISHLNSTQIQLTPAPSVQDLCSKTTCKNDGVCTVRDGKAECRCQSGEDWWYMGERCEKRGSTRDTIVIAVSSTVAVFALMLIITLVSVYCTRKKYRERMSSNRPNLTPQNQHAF
As to the kind of experiment: Enzymatic assay, quenched peptide substrate cleavage, method A. The following applies: geometric mean (geometric SD factor in parentheses), read-out: Meprin beta IC50. As for the experimental part:
(§1) The determination of enzymatic activity was based on the cleavage of internally quenched peptide substrates. A typical assay of 250 μl total volume measured in black 96 well plates consisted of 100 μl buffer, 50 μl enzyme at a final concentration of 5e-8 M to 2e-10 M, 50 μl substrate (0.15 to 80 μM, in buffer, 0.5% DMSO) and 50 μl inhibitor solution (in buffer, 1% DMSO). In case of 125 μl assay volume (black 96 half area well plates) all volumes were cut in half. Enzymatic activity of ADAMs was measured in 384 well plates with 60 μl total assay volume consisting of 20 μl inhibitor, 20 μl buffer, 10 μl enzyme and 10 μl substrate.
(§2) Based on method B Ki^(app) values were determined using Morrison's equation. All measurements were performed using a fluorescence plate reader (FLUOSTAR OPTIMA, BMG Labtech) at 30° C. The kinetic parameters were determined at least in duplicates on separate days. The excitation/emission wavelength was 340/420 nm. The kinetic data was evaluated using GRAFIT software (version 7.0.3, Erithacus Software).

In a further test the target is T2, hMeprin α (Homo sapiens, UniProt Q16819).
T2 sequence (Q16819 66-746): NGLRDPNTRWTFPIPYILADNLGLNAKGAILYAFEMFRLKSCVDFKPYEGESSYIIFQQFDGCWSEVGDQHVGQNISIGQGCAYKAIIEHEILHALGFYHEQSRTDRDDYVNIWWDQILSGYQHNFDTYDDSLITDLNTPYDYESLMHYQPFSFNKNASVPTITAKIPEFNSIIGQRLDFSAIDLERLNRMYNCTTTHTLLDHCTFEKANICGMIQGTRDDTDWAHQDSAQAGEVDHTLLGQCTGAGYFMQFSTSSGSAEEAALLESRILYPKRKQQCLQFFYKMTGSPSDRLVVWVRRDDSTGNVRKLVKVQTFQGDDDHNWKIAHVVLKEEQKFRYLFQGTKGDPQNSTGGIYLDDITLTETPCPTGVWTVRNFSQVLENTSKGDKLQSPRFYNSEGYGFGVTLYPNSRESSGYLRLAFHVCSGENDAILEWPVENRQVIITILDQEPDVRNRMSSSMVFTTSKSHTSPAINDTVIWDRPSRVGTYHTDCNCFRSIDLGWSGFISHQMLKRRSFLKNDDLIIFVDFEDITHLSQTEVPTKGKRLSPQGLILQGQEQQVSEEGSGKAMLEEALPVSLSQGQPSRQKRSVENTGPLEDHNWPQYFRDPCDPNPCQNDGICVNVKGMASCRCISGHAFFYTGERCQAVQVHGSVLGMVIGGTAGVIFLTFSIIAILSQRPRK
The test is described as above. The settings on record: geometric mean (geometric SD factor in parentheses), read-out: Meprin alpha IC50. The procedure: as §1, §2

Test [2] addresses T1, hMeprin β. Briefly: Enzymatic assay, quenched peptide substrate cleavage, method B. The following applies: geometric mean (geometric SD factor in parentheses); for Ki: Morrison's equation, read-out: Meprin beta Ki(app); for IC50: read-out: Meprin beta IC50. An outline of the steps: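 Cleavage of internally quenched peptides was read at 340/420 nm and 30° C., with enzyme at 5e-8 to 2e-10 M and substrate at 0.15–80 μM. Inhibitor solutions contained 1% DMSO and substrate 0.5% DMSO. Method B gave Ki(app) values via Morrison's equation, with kinetics measured in at least duplicate on separate days.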

The values below come from patent US20250388544A1, “HETEROAROMATIC INHIBITORS OF ASTACIN PROTEINASES” (VIVORYON THERAPEUTICS N.V., priority 2019, published 2025).

In the case of `O=C(Cn1c(-c2ccccc2)nnc1-c1ccccc1)NO` [Example 7, 2-(3,5-Diphenyl-1,2,4-triazol-4-yl)ethanehydroxamic acid], the half-maximal inhibitory concentration (IC50) on hMeprin β [1] worked out at 8710 nM; on hMeprin α, 69 nM.
As to `COc1ccc(-c2n[nH]c(-c3ccccc3)c2CC(=O)NO)cc1OC` [Example 49, 2-[3-(3,4-Dimethoxyphenyl)-5-phenyl-1H-pyrazol-4-yl]ethanehydroxamic acid], on hMeprin β [2], the Ki is 83 nM and the concentration for half-maximal inhibition (IC50) was 84 nM.
Turning to `O=C(CCc1c(-c2ccccc2)noc1-c1ccccc1)NO` [Example 4, 3-(3,5-Diphenylisoxazol-4-yl)propanehydroxamic acid], the half-maximal inhibitory concentration (IC50) on hMeprin β [1] was 13700 nM; on hMeprin α it was 32 nM.
Regarding `O=C(Cn1c(-c2ccccc2)ccc1-c1ccccc1)NO` [Example 9, 2-(2,5-Diphenylpyrrol-1-yl)ethanehydroxamic acid], the half-inhibitory concentration (IC50) at hMeprin β [1] worked out at 4320 nM; on hMeprin α it was 34 nM.
Turning to `COc1cccc(-c2n[nH]c(-c3ccccc3)c2CC(=O)NO)c1` [Example 47, 2-[3-(3-Methoxyphenyl)-5-phenyl-1H-pyrazol-4-yl]ethanehydroxamic acid], at hMeprin β [2], the Ki came out at 116 nM and the half-maximal inhibitory concentration (IC50) came to 123 nM.
With `O=C(Cc1c(-c2ccccc2)noc1-c1ccccc1)NO` [Example 2, 2-(3,5-Diphenylisoxazol-4-yl)ethanehydroxamic acid], the 50% inhibitory concentration (IC50) on hMeprin β [1] was 831 nM; at hMeprin α it was 7 nM; at hMeprin β [2], 586 nM. For the same compound, the Ki on hMeprin β [2] worked out at 584 nM.
The matching figures for `O=C(Cn1c(-c2ccccc2)nc2ccccc21)NO` [Example 13, 2-(2-Phenylbenzimidazol-1-yl)ethanehydroxamic acid]: 1630 nM, 173 nM, 1140 nM and 1130 nM.
As to `O=C(Cc1c(-c2ccccc2)nn(Cc2cccc(C(=O)O)c2)c1-c1ccccc1)NO` [Example 41, 3-[[4-[2-(Hydroxyamino)-2-oxo-ethyl]-3,5-diphenyl-1H-pyrazol-1-yl]methyl]benzoic acid], at hMeprin β [2], the Ki was determined as 11 nM and the IC50 was determined as 10 nM.
With `O=C(CCc1c(-c2ccccc2)n[nH]c1-c1ccccc1)NO` [Example 3, 3-(3,5-Diphenyl-1H-pyrazol-4-yl)propanehydroxamic acid], the values for the concentration for half-maximal inhibition (IC50) at hMeprin β [1], at hMeprin α and on hMeprin β [2] were 8070 nM, 108 nM and 9660 nM, respectively. Also, the Ki on hMeprin β [2] came out at 9350 nM.
Take `O=C(Cc1c(-c2ccc3c(c2)OCO3)n[nH]c1-c1ccccc1)NO` [Example 50, 2-[3-(1,3-Benzodioxol-5-yl)-5-phenyl-1H-pyrazol-4-yl]ethanehydroxamic acid]: at hMeprin β [2], the Ki was 109 nM and the half-inhibitory concentration (IC50) worked out at 118 nM.
In the case of `O=C(Cc1c(-c2ccccc2)nn(Cc2ccc(Cl)c(O)c2F)c1-c1ccccc1)NO` [Example 42, 2-[1-(4-Chloro-2-fluoro-3-hydroxybenzyl)-3,5-diphenyl-1H-pyrazol-4-yl]ethanehydroxamic acid], at hMeprin β [2], the Ki worked out at 9 nM and the 50% inhibitory concentration (IC50) is 10 nM.
`O=C(Cc1c(-c2ccccc2)nn(Cc2ccc(C(=O)O)cc2)c1-c1ccccc1)NO` [Example 40, 4-[[4-(2-(Hydroxyamino)-2-oxo-ethyl]-3,5-diphenyl-1H-pyrazol-1-yl]methyl]benzoic acid]: on hMeprin β [2], the Ki turned out to be 9 nM and the concentration for half-maximal inhibition (IC50) was 9 nM.
In the case of `O=C(Cc1c(-c2cccc(C(=O)O)c2)n[nH]c1-c1ccc(Cl)c(O)c1F)NO` [Example 63, 3-[5-(4-Chloro-2-fluoro-3-hydroxy-phenyl)-4-[2-(hydroxyamino)-2-oxo-ethyl]-1H-pyrazol-3-yl]benzoic acid], on hMeprin β [2], the Ki turned out to be 4 nM and the 50% inhibitory concentration (IC50) worked out at 4 nM.
As for `O=C(Cc1c(-c2cc(F)c(O)c(Cl)c2)n[nH]c1-c1ccccc1)NO` [Example 54, 2-[3-(3-Chloro-5-fluoro-4-hydroxy-phenyl)-5-phenyl-1H-pyrazol-4-yl]ethanehydroxamic acid], at hMeprin β [2], the Ki amounted to 0.42 nM and the IC50 was 0.44 nM.
Consider `O=C(Cn1c(-c2ccccc2)cc2ccccc21)NO` [Example 25, 2-(2-Phenylindol-1-yl)ethanehydroxamic acid], for which the IC50 is 1140 nM at hMeprin β [1] and 72 nM at hMeprin α.
Consider `O=C(Cc1c(-c2ccccc2)nn(Cc2ccc3c(c2)OCO3)c1-c1ccccc1)NO` [Example 43, 2-[1-(1,3-Benzodioxol-5-ylmethyl)-3,5-diphenyl-1H-pyrazol-4-yl]ethanehydroxamic acid], for which, at hMeprin β [2], the Ki was determined as 305 nM and the half-inhibitory concentration (IC50) worked out at 310 nM.
Consider `O=C(Cc1c(-c2ccccc2)n[nH]c1-c1ccccc1)NO` [Example 1, 2-(3,5-Diphenyl-1H-pyrazol-4-yl)ethanehydroxamic acid], for which the IC50 on hMeprin β [1] turned out to be 204 nM; on hMeprin α it was 4 nM; on hMeprin β [2] it was 119 nM.
